From US7569549B2, “Isostructural pseudopolymorphs of 9-deoxo-9a-aza-9a-methyl-9a-homoerythromycin A” (Pliva Hrvatska D.O.O., priority 2002, dated 2009)

How the values were obtained:
[1] = Dissolution profiles by USP Method 2 (PharmaTest Dissolution Tester), dissolved content by HPLC; format: physicochemical
Procedure: The comparative dissolution profiles were determined by USP Method 2, PharmaTest Dissolution Tester, PTW SII; the content of dissolved 9-deoxo-9a-aza-9a-methyl-9a-homoerythromycin A was measured by HPLC. The data thus obtained are set forth in Table 6 below, and plotted in FIGS. 17 and 18.
The comparative dissolution profiles were determined by USP Method 2, PharmaTest Dissolution Tester, PTW SII; the content of dissolved 9-deoxo-9a-aza-9a-methyl-9a-homoerythromycin A was measured by HPLC. The data thus obtained are set forth in Table 9 below, and plotted in FIG. 22.

[2] = Intrinsic dissolution rate (Intrinsic Dissolution Tester, Van Kel Type); format: physicochemical; settings: pH 3 and pH 6, 37° C.
Procedure: In addition to the above data, the intrinsic dissolution rates (IDR's) for the new pseudopolymorph of the invention and the commercial dihydrate, at pH 3 and pH 6 and 37° C., were determined by Intrinsic Dissolution Tester, Van Kel Type.

[3] = Similarity factors (f2) calculated for the dissolution profiles; format: physicochemical
Procedure: In order to further assess the data from Table 6, similarity factors (f2) were calculated according to the method described in Note for Guidance on the Investigation of Bioavailability and Bioequivalence (EMEA, December 1998, London) for the dissolution profiles of the two species (9-deoxo-9a-aza-9a-methyl-9a-homoerythromycin A, pseudopolymorph Ia of the present invention, and commercial 9-deoxo-9a-aza-9a-methyl-9a-homoerythromycin A dihydrate).

[4] = Solid state stability by X-ray powder diffraction at varied humidity and temperature; format: physicochemical; settings: 5% RH to 75% RH; 30° C. to 75° C.
Procedure: The solid state stability of the 9-deoxo-9a-aza-9a-methyl-9a-homoerythromycin A pseudopolymorph Ia (x=1, y=0) was determined by measuring the solid state x-ray powder diffraction pattern for this material at four different percent relative humidities (% RH), ranging from 5% RH to 75% RH, and at five different temperatures, increasing from 30° C. to 75° C. using Philips X'PertPRO powder X-ray diffractometer equipped with Anton Paar TTK-100 humidity camera used for non-ambient data collection.

in vivo = settings: rat, 50 mg/kg
From the text: 32 animals were studied using a cross-over experimental design experiment. A non-compartmental analysis was used to determine the concentrations of the respective materials in whole blood and plasma as a function of time.

CC[C@H]1OC(=O)[C@H](C)[C@@H](O[C@H]2C[C@@](C)(OC)[C@@H](O)[C@H](C)O2)[C@H](C)[C@@H](O[C@@H]2O[C@H](C)C[C@H](N(C)C)[C@H]2O)[C@](C)(O)C[C@@H](C)CN(C)[C@H](C)[C@@H](O)[C@]1(C)O [Pseudopolymorph Ia, 9-deoxo-9a-aza-9a-methyl-9a-homoerythromycin A]
Percent dissolved ([1]; pH 3, 37° C., 5 minutes, listed as Ia (Example 19, Batch 1)): 25.1% | Percent dissolved ([1]; pH 3, 37° C., 5 minutes, listed as Ia (Example 19, Batch 3)): 21.1% | Percent dissolved ([1]; pH 3, 37° C., 5 minutes, listed as Ia (Example 19 Batch 2)): 18.5% | Percent dissolved ([1]; pH 3, 37° C., 10 minutes, listed as Ia (Example 19, Batch 1)): 37.1% | Percent dissolved ([1]; pH 3, 37° C., 10 minutes, listed as Ia (Example 19, Batch 3)): 32.4% | Percent dissolved ([1]; pH 3, 37° C., 10 minutes, listed as Ia (Example 19 Batch 2)): 30.7% | Percent dissolved ([1]; pH 3, 37° C., 20 minutes, listed as Ia (Example 19, Batch 1)): 45.8% | Percent dissolved ([1]; pH 3, 37° C., 20 minutes, listed as Ia (Example 19, Batch 3)): 43.3% | Percent dissolved ([1]; pH 3, 37° C., 20 minutes, listed as Ia (Example 19 Batch 2)): 45.1% | Percent dissolved ([1]; pH 3, 37° C., 45 minutes, listed as Ia (Example 19, Batch 1)): 55.5% | Percent dissolved ([1]; pH 3, 37° C., 45 minutes, listed as Ia (Example 19, Batch 3)): 56% | Percent dissolved ([1]; pH 3, 37° C., 45 minutes, listed as Ia (Example 19 Batch 2)): 60.9% | Percent dissolved ([1]; pH 3, 37° C., 60 minutes, listed as Ia (Example 19, Batch 1)): 58.3% | Percent dissolved ([1]; pH 3, 37° C., 60 minutes, listed as Ia (Example 19, Batch 3)): 61.1% | Percent dissolved ([1]; pH 3, 37° C., 60 minutes, listed as Ia (Example 19 Batch 2)): 64.8% | Percent dissolved ([1]; pH 3, 37° C., 90 minutes, listed as Ia (Example 19, Batch 1)): 62.9% | Percent dissolved ([1]; pH 3, 37° C., 90 minutes, listed as Ia (Example 19, Batch 3)): 64.7% | Percent dissolved ([1]; pH 3, 37° C., 90 minutes, listed as Ia (Example 19 Batch 2)): 70% | Percent dissolved ([1]; pH 6, 37° C., 5 minutes, listed as Ia (Example 19, Batch 1)): 67.0% | Percent dissolved ([1]; pH 6, 37° C., 5 minutes, listed as Ia (Example 19, Batch 3)): 70.2% | Percent dissolved ([1]; pH 6, 37° C., 5 minutes, listed as Ia (Example 19 Batch 2)): 71.7% | Percent dissolved ([1]; pH 6, 37° C., 10 minutes, listed as Ia (Example 19, Batch 1)): 73.2% | Percent dissolved ([1]; pH 6, 37° C., 10 minutes, listed as Ia (Example 19, Batch 3)): 77.3% | Percent dissolved ([1]; pH 6, 37° C., 10 minutes, listed as Ia (Example 19 Batch 2)): 81.4% | Percent dissolved ([1]; pH 6, 37° C., 20 minutes, listed as Ia (Example 19, Batch 1)): 76.7% | Percent dissolved ([1]; pH 6, 37° C., 20 minutes, listed as Ia (Example 19, Batch 3)): 77% | Percent dissolved ([1]; pH 6, 37° C., 20 minutes, listed as Ia (Example 19 Batch 2)): 81.6% | Percent dissolved ([1]; pH 6, 37° C., 45 minutes, listed as Ia (Example 19, Batch 1)): 76.7% | Percent dissolved ([1]; pH 6, 37° C., 45 minutes, listed as Ia (Example 19, Batch 3)): 77.6% | Percent dissolved ([1]; pH 6, 37° C., 45 minutes, listed as Ia (Example 19 Batch 2)): 80.4% | Percent dissolved ([1]; pH 6, 37° C., 60 minutes, listed as Ia (Example 19, Batch 1)): 74.5% | Percent dissolved ([1]; pH 6, 37° C., 60 minutes, listed as Ia (Example 19, Batch 3)): 78% | Percent dissolved ([1]; pH 6, 37° C., 60 minutes, listed as Ia (Example 19 Batch 2)): 79.9% | Percent dissolved ([1]; pH 6, 37° C., 90 minutes, listed as Ia (Example 19, Batch 1)): 75.8% | Percent dissolved ([1]; pH 6, 37° C., 90 minutes, listed as Ia (Example 19, Batch 3)): 79.2% | Percent dissolved ([1]; pH 6, 37° C., 90 minutes, listed as Ia (Example 19 Batch 2)): 80% | Intrinsic dissolution rate (IDR) [2]: 2.5-2.8 mg min^−1 cm^−2 | IDR higher than the IDR of the dihydrate ([2]; relative to dihydrate): 40 to 50% | Similarity factor (f2) ([3]; Batch 1 vs. Batch 2 of Example 19, pH = 3): 61.3 | Similarity factor (f2) ([3]; Batch 1 vs. Batch 2 of Example 19, pH = 6): 63.1 | Similarity factor (f2) ([3]; Batch 1 vs. Batch 3 of Example 19, pH = 3): 74.7 | Similarity factor (f2) ([3]; Batch 1 vs. Batch 3 of Example 19, pH = 6): 75.4 | Similarity factor (f2) ([3]; Batch 2 vs. Batch 3 of Example 19, pH = 3): 71.3 | Similarity factor (f2) ([3]; Batch 2 vs. Batch 3 of Example 19, pH = 6): 75.3 | Similarity factor (f2) ([3]; Dihydrate vs. Batch 1 of Example 19, pH = 3): 28.6 | Similarity factor (f2) ([3]; Dihydrate vs. Batch 1 of Example 19, pH = 6): 25 | Similarity factor (f2) ([3]; Dihydrate vs. Batch 2 of Example 19, pH = 3): 27.5 | Similarity factor (f2) ([3]; Dihydrate vs. Batch 2 of Example 19, pH = 6): 22.2 | Similarity factor (f2) ([3]; Dihydrate vs. Batch 3 of Example 19, pH = 3): 29.4 | Similarity factor (f2) ([3]; Dihydrate vs. Batch 3 of Example 19, pH = 6): 23.7 | Solid state stability (phase transitions by x-ray powder diffraction) [4]: no phase-transitions occur | AUC(0-12) higher relative to the commercial dihydrate (in vivo): approximately 20% | AUC(0-48) (in vivo): 35659.0 nghr/ml | Tmax (in vivo): 2 h

CC[C@H]1OC(=O)[C@H](C)[C@@H](O[C@H]2C[C@@](C)(OC)[C@@H](O)[C@H](C)O2)C(C)[C@@H](O[C@@H]2O[C@H](C)CC(N(C)C)[C@H]2O)[C@](C)(O)C[C@@H](C)CN(C)[C@H](C)[C@@H](O)[C@]1(C)O (stereo partly shown) [9-deoxo-9a-aza-9a-methyl-9a-homoerythromycin A dihydrate, reference compound]
Percent dissolved ([1]; pH 3, 37° C., 5 minutes): 3.9% | Percent dissolved ([1]; pH 3, 37° C., 10 minutes): 8.1% | Percent dissolved ([1]; pH 3, 37° C., 20 minutes): 14.6% | Percent dissolved ([1]; pH 3, 37° C., 45 minutes): 26.7% | Percent dissolved ([1]; pH 3, 37° C., 60 minutes): 33.3% | Percent dissolved ([1]; pH 3, 37° C., 90 minutes): 39.1% | Percent dissolved ([1]; pH 6, 37° C., 5 minutes): 14.5% | Percent dissolved ([1]; pH 6, 37° C., 10 minutes): 27.3% | Percent dissolved ([1]; pH 6, 37° C., 20 minutes): 44.2% | Percent dissolved ([1]; pH 6, 37° C., 45 minutes): 69.1% | Percent dissolved ([1]; pH 6, 37° C., 60 minutes): 73.7% | Percent dissolved ([1]; pH 6, 37° C., 90 minutes): 75.0% | Intrinsic dissolution rate (IDR) [2]: about 1.8 mg min^−1 cm^−2 | AUC(0-48) (in vivo): 31696.6 nghr/ml | Tmax (in vivo; po): 2 h

CC[C@H]1OC(=O)[C@H](C)[C@@H](O[C@H]2C[C@@](C)(OC)[C@@H](O)[C@H](C)O2)[C@H](C)[C@@H](O[C@@H]2O[C@H](C)C[C@H](N(C)C)[C@H]2O)[C@](C)(O)C[C@@H](C)CN(C)[C@H](C)[C@@H](O)[C@]1(C)O [Pseudopolymorph Ik, 9-deoxo-9a-aza-9a-methyl-9a-homoerythromycin A]
Percent dissolved ([1]; pH 6, 37° C., 5 minutes, listed as Ik (Example 6)): 99.8% | Percent dissolved ([1]; pH 6, 37° C., 10 minutes, listed as Ik (Example 6)): 99.9% | Percent dissolved ([1]; pH 6, 37° C., 20 minutes, listed as Ik (Example 6)): 97.1% | Percent dissolved ([1]; pH 6, 37° C., 45 minutes, listed as Ik (Example 6)): 97.6%
